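These data come from cells grown in 96-well plates and exposed to compound for 48 hours at five concentrations. The concentration for 50% growth inhibition is given as GI50.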 Activity calls are given as the source filed them. Cut-off read from the data, not from the text of the source: active = GI50 up to about 1.1 µM and inactive = higher.
How the values were obtained:
Experiment in all cases: NCI anticancer screen, dose series, 48 h
[1] = test system: SW-620
[2] = test system: OVCAR-8
[3] = test system: HCT-15
[4] = test system: Malme-3M
[5] = test system: LOX IMVI
[6] = test system: SF-295
[7] = test system: NCI-H522
[8] = test system: SR
[9] = test system: UACC-257
[10] = test system: ACHN
[11] = test system: A549
[12] = test system: OVCAR-4
[13] = test system: HOP-92
[14] = test system: SNB-75
[15] = test system: 786-0
[16] = test system: UACC-62
[17] = test system: A498
[18] = test system: T47D
[19] = test system: SN12C
[20] = test system: HOP-62

SMILES | GI50 [1] | GI50 [2] | GI50 [3] | GI50 [4] | GI50 [5] | GI50 [6] | GI50 [7] | GI50 [8] | GI50 [9] | GI50 [10] | GI50 [11] | GI50 [12] | GI50 [13] | GI50 [14] | GI50 [15] | GI50 [16] | GI50 [17] | GI50 [18] | GI50 [19] | GI50 [20]
O=C1c2ccccc2CCC1C(O)(C(F)(F)F)C(F)(F)F (configuration not stated) | > 100 µM (inactive) | > 100 µM (inactive) | 63 µM | > 100 µM (inactive) | > 100 µM (inactive) | > 100 µM (inactive) | > 100 µM (inactive) | > 100 µM (inactive) | > 100 µM (inactive) | > 100 µM (inactive) | > 100 µM (inactive) | > 100 µM (inactive) | > 100 µM (inactive) | 26.2 µM (inactive) | > 100 µM (inactive) | > 100 µM (inactive) | > 100 µM (inactive) | 44.3 µM (inactive) | – | –
O=C1O/C(=C\c2ccccc2)N(c2ccccc2)C1=O | > 100 µM (inactive) | > 100 µM (inactive) | > 100 µM | – | > 100 µM (inactive) | – | > 100 µM (inactive) | > 100 µM (inactive) | > 100 µM (inactive) | > 100 µM (inactive) | > 100 µM (inactive) | > 100 µM (inactive) | > 100 µM (inactive) | > 100 µM (inactive) | > 100 µM (inactive) | > 100 µM (inactive) | > 100 µM (inactive) | > 100 µM (inactive) | > 100 µM (inactive) | > 100 µM (inactive)
CCNc1ncnc2sc(SCc3ccccc3)nc12 | > 100 µM (inactive) | 80.9 µM (inactive) | > 100 µM | > 100 µM (inactive) | 95.9 µM (inactive) | 89.5 µM (inactive) | 62.2 µM (inactive) | 33.8 µM (inactive) | 79.1 µM (inactive) | 70.6 µM (inactive) | 36.5 µM (inactive) | > 100 µM (inactive) | 19.6 µM (inactive) | > 100 µM (inactive) | > 100 µM (inactive) | – | 61.9 µM (inactive) | 75.5 µM (inactive) | > 100 µM (inactive) | > 100 µM (inactive)
N#CCCN(CCC#N)CCN(CCN(CCC#N)CCC#N)CCN(CCC#N)CCC#N | > 100 µM (inactive) | > 100 µM (inactive) | > 100 µM | > 100 µM (inactive) | > 100 µM (inactive) | > 100 µM (inactive) | > 100 µM (inactive) | > 100 µM (inactive) | > 100 µM (inactive) | > 100 µM (inactive) | > 100 µM (inactive) | > 100 µM (inactive) | > 100 µM (inactive) | > 100 µM (inactive) | > 100 µM (inactive) | – | > 100 µM (inactive) | > 100 µM (inactive) | > 100 µM (inactive) | > 100 µM (inactive)
COCCCNc1c2ccccc2nc2ccccc12 | 2.44 µM (inactive) | 2.68 µM (inactive) | 1.3 µM | 1.87 µM (inactive) | 2.22 µM (inactive) | 3.61 µM (inactive) | 1.64 µM (inactive) | 2.86 µM (inactive) | 2.42 µM (inactive) | 0.813 µM (active) | 2.92 µM (inactive) | 2.64 µM (inactive) | 3.58 µM (inactive) | – | 3.57 µM (inactive) | 2.18 µM (inactive) | 3.97 µM (inactive) | 2.64 µM (inactive) | 3.24 µM (inactive) | 3.29 µM (inactive)
O=c1[nH]nc(Cc2ccccc2)n1/N=C/c1cccnc1 | > 100 µM (inactive) | > 100 µM (inactive) | > 100 µM | > 100 µM (inactive) | > 100 µM (inactive) | > 100 µM (inactive) | > 100 µM (inactive) | > 100 µM (inactive) | > 100 µM (inactive) | > 100 µM (inactive) | > 100 µM (inactive) | > 100 µM (inactive) | > 100 µM (inactive) | > 100 µM (inactive) | > 100 µM (inactive) | – | > 100 µM (inactive) | > 100 µM (inactive) | > 100 µM (inactive) | > 100 µM (inactive)
O=C1C/C(=C\c2ccccc2)C(=O)c2ccccc2N1 | 19.5 µM (inactive) | 18.8 µM (inactive) | 24.7 µM | 17.5 µM (inactive) | 20.6 µM (inactive) | 17.4 µM (inactive) | 22.9 µM (inactive) | 42.8 µM (inactive) | 26.9 µM (inactive) | 25.1 µM (inactive) | 25.5 µM (inactive) | 20 µM (inactive) | 29.9 µM (inactive) | – | 19.5 µM (inactive) | 19.2 µM (inactive) | 18.8 µM (inactive) | 28.2 µM (inactive) | 18.5 µM (inactive) | 27.5 µM (inactive)
C=C(C(=O)O)[C@@H]1C[C@@H](OC(C)=O)[C@]2(C)CC/C=C(\C)CCC[C@H](C)[C@H](O)[C@@H]1O2 | 40.1 µM (inactive) | 27.5 µM (inactive) | 41.8 µM | 61.7 µM (inactive) | 30.3 µM (inactive) | 24.7 µM (inactive) | 18 µM (inactive) | 24.3 µM (inactive) | 47 µM (inactive) | 55.7 µM (inactive) | 43 µM (inactive) | > 100 µM (inactive) | 46 µM (inactive) | 74.8 µM (inactive) | 44.5 µM (inactive) | 47.8 µM (inactive) | > 100 µM (inactive) | > 100 µM (inactive) | 60.4 µM (inactive) | –
CCCCCCc1ccc(C(=O)NO)cc1 | 64.4 µM (inactive) | 13.1 µM (inactive) | 12.6 µM | – | 17.2 µM (inactive) | 40.6 µM (inactive) | 11.3 µM (inactive) | 9.98 µM (inactive) | 44.7 µM (inactive) | 22.9 µM (inactive) | 33.8 µM (inactive) | 20.4 µM (inactive) | 48 µM (inactive) | 42.9 µM (inactive) | 13.7 µM (inactive) | 24.9 µM (inactive) | 29.2 µM (inactive) | 19.5 µM (inactive) | 21.9 µM (inactive) | 34.2 µM (inactive)
COC(=O)C1[C@H](C(=O)OC)C1(Br)CBr (some centres not stated) | > 100 µM (inactive) | > 100 µM (inactive) | > 100 µM | – | > 100 µM (inactive) | > 100 µM (inactive) | 8.95 µM (inactive) | > 100 µM (inactive) | > 100 µM (inactive) | > 100 µM (inactive) | > 100 µM (inactive) | > 100 µM (inactive) | > 100 µM (inactive) | > 100 µM (inactive) | > 100 µM (inactive) | > 100 µM (inactive) | > 100 µM (inactive) | > 100 µM (inactive) | > 100 µM (inactive) | > 100 µM (inactive)
Nc1ncnc2c1nc(-c1ccccc1)n2C1OC(CO)C(O)C1O (configuration not stated) | > 100 µM (inactive) | > 100 µM (inactive) | > 100 µM | – | > 100 µM (inactive) | > 100 µM (inactive) | > 100 µM (inactive) | > 100 µM (inactive) | > 100 µM (inactive) | > 100 µM (inactive) | > 100 µM (inactive) | > 100 µM (inactive) | > 100 µM (inactive) | > 100 µM (inactive) | > 100 µM (inactive) | > 100 µM (inactive) | > 100 µM (inactive) | > 100 µM (inactive) | > 100 µM (inactive) | > 100 µM (inactive)
